According to article PMC11586334, “Molecular hybridization modification improves the stability and immunomodulatory activity of TP5 peptide” (Frontiers in Immunology, 2024):
Ends that are not written are not given here.

Legend:
recombinant TLR2 = target: T1, recombinant TLR2 (Homo sapiens, UniProt O60603); experiment: SPR binding of YTP to immobilized TLR2; details: ProteOn XPR36, TLR2 immobilized by amino coupling, 25°C, PBS with 1% Tween 20, 1:1 model
T1 construct: purchased R&D Systems
Description: […] (SPR) experiments were conducted using a ProteOn XPR36 instrument (Bio-Rad, Hercules, CA, USA) with a ProteOn GLH sensor chip (Bio-Rad) at 25°C. The running buffer (PBS with 1% Tween 20) was continuously passed into the reaction chamber at 30 μL/min. The SPR sensing chip with recombinant TLR2 (R&D Systems) was immobilized by amino coupling to capture YTP. The binding affinity of YTP to TLR2 was examined using peptide concentrations of […]. The running buffer was injected into the empty channels as a reference. Sensor chip regeneration and desorption were achieved by injecting 10 mM Gly-HCl buffer (pH 2.5) before the next round of analyses. The experimental data were processed using ProteOn manager software (version 2.0). The binding curves were processed for the start injection alignment and baseline. The reference-subtracted sensorgram was then fitted to the curves labeling a homogeneous 1:1 model. Protein surface data were grouped to fit the association (Ka) and dissociation (Kd) rate constants. The symmetry dissociation constant (KD) for the peptide-[…] interaction was evaluated by using the following equation: […]

RAW264.7 macrophages = type: cell-based, murine
Description: Murine macrophage cells (RAW264.7) were purchased from the Shanghai Cell Bank, the Institute of Cell Biology, China Academy of Sciences and cultured in Dulbecco’s modified Eagle’s medium (DMEM; HyClone, UT, USA). The DMEM medium was supplemented with 10% (v/v) fetal bovine serum (Bioscience) and 1% (v/v) penicillin/streptomycin (HyClone) and maintained at 37°C in a humidified atmosphere (5% CO2, 95% air).
RAW264.7 viability was measured using a Cell Counting Kit-8 (CCK-8) Assay Kit (Dojinbo, Japan). Cells were seeded in 96-well plates at a density of 2 × 10^4 cells/well and treated with or without YW12D, TP5 and YTP peptides (10–80 μg/mL). After incubation for 24 h, the cells were then incubated in CCK-8 reagent for 4 h at 37°C. The absorbance of each well was measured at 450 nm using a 96-well microplate reader. Cell viability was evaluated as follows:
(1) Cell viability (%)=(OD450 (sample)/OD450 (control))×100%

in vitro = in vitro ADME; details: rat
Description: Rat plasma was collected by centrifuging whole blood from healthy adult rats. YW12D, TP5, and YTP (10 µg/mL) were incubated for different time at 37°C in rat plasma. The samples were collected into prechilled tubes containing 1 mL of acidic acetone (hydrochloric acid/acetone/H2O, 1:40:5) and centrifuged at 2, 000 × g for 20 min at 4°C. The obtained precipitates were dried in vacuum. Then, the dried precipitates were dissolved in 0.5 mL of 1 M acetic acid. The peptide analysis was conducted using HPLC. The half-lives of the peptides were calculated by a logarithm-linear regression analysis of the peptide concentrations.

[1] = target: recombinant TLR2 (Toll-like receptor 2) (UniProt O60603); experiment: SPR; ProteOn XPR36, GLH sensor chip; recombinant TLR2 immobilised by amino coupling; YTP passed over at 0, 1.25, 2.5, 5 and 10 (μM in the results, mM in the methods); 25°C; running buffer PBS with 1% Tween 20, 30 μL/min; homogeneous 1:1 model
Chain of recombinant TLR2 (Toll-like receptor 2) (O60603 21-588): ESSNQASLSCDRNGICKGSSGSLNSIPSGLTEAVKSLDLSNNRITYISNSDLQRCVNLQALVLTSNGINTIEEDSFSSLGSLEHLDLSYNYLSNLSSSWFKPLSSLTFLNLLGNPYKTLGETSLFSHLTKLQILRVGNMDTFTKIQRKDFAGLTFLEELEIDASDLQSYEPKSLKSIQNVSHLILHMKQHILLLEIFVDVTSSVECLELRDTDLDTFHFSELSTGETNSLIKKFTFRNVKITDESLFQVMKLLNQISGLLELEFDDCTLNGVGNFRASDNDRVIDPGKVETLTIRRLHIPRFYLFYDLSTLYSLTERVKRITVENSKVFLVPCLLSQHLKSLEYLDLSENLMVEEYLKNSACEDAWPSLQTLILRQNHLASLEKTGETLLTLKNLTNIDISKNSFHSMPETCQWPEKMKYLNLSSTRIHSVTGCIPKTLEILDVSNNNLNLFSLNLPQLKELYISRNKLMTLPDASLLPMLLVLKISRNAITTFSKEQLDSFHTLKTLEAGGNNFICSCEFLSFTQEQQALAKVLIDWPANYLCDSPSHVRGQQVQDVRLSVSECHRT

T1 sequence (O60603 21-784, species assumed): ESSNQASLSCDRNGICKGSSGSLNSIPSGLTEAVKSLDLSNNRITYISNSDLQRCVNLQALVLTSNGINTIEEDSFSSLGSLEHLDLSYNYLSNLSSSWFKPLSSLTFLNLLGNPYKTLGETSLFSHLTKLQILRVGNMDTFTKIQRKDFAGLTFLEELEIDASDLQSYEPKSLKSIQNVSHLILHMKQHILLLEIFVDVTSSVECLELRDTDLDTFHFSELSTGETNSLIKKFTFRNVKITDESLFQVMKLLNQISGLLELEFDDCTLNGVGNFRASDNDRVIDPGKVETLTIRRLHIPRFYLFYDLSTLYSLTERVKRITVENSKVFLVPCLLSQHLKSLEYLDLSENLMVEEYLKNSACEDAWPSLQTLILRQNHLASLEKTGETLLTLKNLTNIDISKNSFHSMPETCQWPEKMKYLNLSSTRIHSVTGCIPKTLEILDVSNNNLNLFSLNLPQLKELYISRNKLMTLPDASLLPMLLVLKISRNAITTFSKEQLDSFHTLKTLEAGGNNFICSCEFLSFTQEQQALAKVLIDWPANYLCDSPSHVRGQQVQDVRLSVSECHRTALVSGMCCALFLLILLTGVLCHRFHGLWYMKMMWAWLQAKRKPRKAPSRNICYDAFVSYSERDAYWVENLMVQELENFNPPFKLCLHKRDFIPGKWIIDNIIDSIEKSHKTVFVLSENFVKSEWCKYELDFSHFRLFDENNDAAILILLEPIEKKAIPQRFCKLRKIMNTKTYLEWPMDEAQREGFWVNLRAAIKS

Ka (association rate constant) (recombinant TLR2) [M⁻¹ s⁻¹] | Kd (dissociation rate constant) (recombinant TLR2) [s⁻¹] | half-life in plasma (in vitro) | half-life at 10 µg/mL (in vitro; plasma) [h] | Kd [1] [nM] | Molecule | cytotoxicity at high dose (RAW264.7 macrophages)
4.31e+06 | 0.0162 | more than 2 h | 2 | – | YVKLWRMIKFIRRKDVY [YTP] | no significant cytotoxicity
– | – | – | – | 3.76 | YVKLWRMIKFIRRKDVY [hybrid peptide YW12D-TP5 (YTP)] | –
